Measurements: ChEMBL document CHEMBL1201862, “PubChem BioAssay data set” (2004)
The source made the active and inactive calls.

Experiments:
[1] = target: FAD-linked sulfhydryl oxidase ALR (Homo sapiens, UniProt P55789); test: ALR-catalysed DTT oxidation blockers – biochemical, H2O2 detection, luminescence, cherry-pick, dose response (AID 493248)
[2] = target: T1, Fatty acid synthase (Homo sapiens, UniProt P49327); test: inhibition of human FAS-TE enzyme activity – biochemical, endpoint fluorescence intensity, uHTS hits, dose response (AID 624327); assay type: functional;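 note: fluorescence from hydrolysis of an O-methyl fluorescein acyl ester substrate by the enzyme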
T1 sequence (P49327 whole entry): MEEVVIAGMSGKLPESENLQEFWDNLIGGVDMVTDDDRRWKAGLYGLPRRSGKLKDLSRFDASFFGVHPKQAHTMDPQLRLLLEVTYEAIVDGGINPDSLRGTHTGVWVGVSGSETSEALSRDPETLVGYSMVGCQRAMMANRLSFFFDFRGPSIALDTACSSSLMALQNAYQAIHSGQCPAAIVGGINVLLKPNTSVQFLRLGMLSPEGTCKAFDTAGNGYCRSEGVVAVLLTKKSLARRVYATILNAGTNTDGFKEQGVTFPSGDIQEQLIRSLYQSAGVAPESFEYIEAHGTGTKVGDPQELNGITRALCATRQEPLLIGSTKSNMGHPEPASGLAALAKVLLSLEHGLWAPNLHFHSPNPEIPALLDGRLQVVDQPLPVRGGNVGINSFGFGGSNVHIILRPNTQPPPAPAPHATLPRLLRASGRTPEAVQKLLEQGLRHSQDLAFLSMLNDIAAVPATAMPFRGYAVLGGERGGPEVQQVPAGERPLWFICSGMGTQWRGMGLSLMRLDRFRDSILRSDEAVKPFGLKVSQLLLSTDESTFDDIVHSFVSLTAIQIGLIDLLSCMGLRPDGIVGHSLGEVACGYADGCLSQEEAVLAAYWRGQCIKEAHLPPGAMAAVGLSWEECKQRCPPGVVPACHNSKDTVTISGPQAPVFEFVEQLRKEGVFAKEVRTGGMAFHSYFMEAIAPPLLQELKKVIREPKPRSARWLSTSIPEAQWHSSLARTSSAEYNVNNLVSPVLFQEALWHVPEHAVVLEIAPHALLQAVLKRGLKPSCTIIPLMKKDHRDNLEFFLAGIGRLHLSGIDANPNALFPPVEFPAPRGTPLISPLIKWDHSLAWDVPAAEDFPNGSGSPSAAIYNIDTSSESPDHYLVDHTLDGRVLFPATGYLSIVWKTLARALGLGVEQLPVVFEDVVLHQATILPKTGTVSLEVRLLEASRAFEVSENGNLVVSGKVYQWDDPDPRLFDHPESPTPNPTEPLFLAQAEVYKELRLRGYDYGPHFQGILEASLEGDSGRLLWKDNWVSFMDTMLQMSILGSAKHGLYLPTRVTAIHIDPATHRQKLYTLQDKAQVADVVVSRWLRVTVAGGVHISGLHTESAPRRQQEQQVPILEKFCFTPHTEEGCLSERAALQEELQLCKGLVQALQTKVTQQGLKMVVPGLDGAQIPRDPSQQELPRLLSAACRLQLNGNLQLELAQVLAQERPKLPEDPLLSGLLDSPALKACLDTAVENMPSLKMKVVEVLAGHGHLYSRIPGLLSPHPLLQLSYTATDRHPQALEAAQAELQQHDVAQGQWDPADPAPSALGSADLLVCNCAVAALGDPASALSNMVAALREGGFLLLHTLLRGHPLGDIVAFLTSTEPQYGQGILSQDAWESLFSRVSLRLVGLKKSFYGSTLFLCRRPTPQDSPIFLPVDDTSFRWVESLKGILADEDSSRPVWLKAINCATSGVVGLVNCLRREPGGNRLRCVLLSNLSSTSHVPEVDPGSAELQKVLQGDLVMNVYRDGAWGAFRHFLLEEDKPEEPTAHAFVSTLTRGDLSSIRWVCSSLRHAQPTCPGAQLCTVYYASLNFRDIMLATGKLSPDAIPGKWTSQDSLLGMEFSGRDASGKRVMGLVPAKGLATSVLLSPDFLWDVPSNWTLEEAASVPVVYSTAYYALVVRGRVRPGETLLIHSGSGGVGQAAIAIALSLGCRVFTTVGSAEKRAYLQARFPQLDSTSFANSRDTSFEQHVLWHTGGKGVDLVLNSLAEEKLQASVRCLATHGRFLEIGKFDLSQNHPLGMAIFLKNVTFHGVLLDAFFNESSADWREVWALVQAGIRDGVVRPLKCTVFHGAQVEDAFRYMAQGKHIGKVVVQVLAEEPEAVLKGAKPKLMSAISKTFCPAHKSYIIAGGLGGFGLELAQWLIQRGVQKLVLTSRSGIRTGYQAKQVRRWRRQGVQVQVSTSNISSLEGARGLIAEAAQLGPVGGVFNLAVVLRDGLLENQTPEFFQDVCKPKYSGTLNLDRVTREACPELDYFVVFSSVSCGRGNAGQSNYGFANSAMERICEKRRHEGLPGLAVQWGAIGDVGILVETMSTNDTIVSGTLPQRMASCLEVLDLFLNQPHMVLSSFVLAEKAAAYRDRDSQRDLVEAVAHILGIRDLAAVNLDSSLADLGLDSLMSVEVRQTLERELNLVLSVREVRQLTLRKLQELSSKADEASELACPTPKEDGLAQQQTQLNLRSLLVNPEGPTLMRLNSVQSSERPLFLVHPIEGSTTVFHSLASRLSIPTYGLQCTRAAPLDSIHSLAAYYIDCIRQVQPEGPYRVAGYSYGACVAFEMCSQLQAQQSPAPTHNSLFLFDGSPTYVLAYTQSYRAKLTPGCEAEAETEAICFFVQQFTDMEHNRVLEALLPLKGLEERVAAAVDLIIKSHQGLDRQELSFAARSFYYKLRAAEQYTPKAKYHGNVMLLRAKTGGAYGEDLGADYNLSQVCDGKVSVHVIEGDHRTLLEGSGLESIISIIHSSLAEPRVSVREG

[3] = target: T1, Fatty acid synthase; test: inhibition of human FAS-TE enzyme activity – biochemical, kinetic fluorescence intensity, dose response (AID 624326); assay type: functional;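 note: rate of fluorescence rise from hydrolysis of a fluorogenic O-methyl fluorescein ester substrate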
[4] = target: Luciferin 4-monooxygenase (Photinus pyralis, UniProt P08659); test: inhibition of purified Photinus pyralis luciferase – biochemical, luminescence, dose response (AID 1891)
Chain of Luciferin 4-monooxygenase (P08659 whole entry): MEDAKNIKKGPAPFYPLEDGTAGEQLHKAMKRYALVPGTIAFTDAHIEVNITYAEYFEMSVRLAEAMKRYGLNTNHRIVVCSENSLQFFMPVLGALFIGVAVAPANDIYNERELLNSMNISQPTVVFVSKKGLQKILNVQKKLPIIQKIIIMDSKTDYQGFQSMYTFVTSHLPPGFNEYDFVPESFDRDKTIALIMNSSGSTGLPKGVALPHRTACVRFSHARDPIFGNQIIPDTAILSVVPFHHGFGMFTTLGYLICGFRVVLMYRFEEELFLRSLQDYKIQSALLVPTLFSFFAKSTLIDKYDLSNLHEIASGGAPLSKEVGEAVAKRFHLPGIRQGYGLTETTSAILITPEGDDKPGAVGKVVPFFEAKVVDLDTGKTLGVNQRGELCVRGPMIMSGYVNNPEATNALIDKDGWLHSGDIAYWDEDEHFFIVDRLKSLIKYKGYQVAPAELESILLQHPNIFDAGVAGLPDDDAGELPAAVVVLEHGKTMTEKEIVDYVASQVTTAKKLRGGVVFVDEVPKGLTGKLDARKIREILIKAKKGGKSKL

[5] = Luminescence Cell-Based Dose Confirmation HTS to Identify Inhibitors of Platelet Dense Granule Release. [Related pubchem assays: 1663 (Primary HTS), 1678 (Summary of Project)]; assay type: functional
[6] = Luminescence Cell-Based Dose Confirmation HTS to Identify Activators of 5'UTR Stem-Loop Driven Alpha-Synuclein mRNA Translation in H4 Neuroglioblastoma Cells. [Related pubchem assays: 1829 (Project Summary), 1814 (Primary HTS)]; assay type: functional
[7] = test system: H4; test: Luminescence Cell-Based Dose Response HTS to Identify Activators of 5'UTR Stem-Loop Driven Prion Protein mRNA Translation in H4 Neuroglioblastoma Cells. [Related pubchem assays: 1829 (Project Summary), 1814 (Primary HTS)]; assay type: functional; settings: Homo sapiens
[8] = microbe, parasite or virus in culture; assay type: functional; settings: Mycobacterium tuberculosis
[9] = target: Large T antigen (Simian virus 40, UniProt P03070); assay type: functional, Betapolyomavirus macacae;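 note: Confirmatory-stage PubChem screen for compounds that inhibit SV40 T antigen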
Chain of Large T antigen (P03070 whole entry): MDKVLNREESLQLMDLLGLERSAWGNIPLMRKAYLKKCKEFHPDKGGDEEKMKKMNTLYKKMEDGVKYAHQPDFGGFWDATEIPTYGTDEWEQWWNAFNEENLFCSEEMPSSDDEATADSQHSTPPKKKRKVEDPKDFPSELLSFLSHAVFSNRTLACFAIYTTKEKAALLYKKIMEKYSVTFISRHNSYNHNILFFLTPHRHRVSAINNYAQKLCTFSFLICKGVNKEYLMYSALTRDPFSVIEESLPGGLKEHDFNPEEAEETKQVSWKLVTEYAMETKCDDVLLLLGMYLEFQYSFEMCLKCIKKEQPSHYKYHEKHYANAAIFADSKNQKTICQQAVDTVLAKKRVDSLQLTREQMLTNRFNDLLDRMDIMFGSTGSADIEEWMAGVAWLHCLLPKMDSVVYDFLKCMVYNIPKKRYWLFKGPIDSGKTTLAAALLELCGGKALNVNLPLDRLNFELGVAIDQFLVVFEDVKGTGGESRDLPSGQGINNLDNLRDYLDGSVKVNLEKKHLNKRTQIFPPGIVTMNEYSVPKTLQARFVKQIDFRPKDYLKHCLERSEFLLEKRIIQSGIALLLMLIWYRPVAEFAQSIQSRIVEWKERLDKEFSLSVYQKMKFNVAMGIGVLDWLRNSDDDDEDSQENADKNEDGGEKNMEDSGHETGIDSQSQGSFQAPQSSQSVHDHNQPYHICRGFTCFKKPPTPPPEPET

[10] = NIH-3T3 fibroblast cytotoxicity, dose response, cytotoxicity control, cell-based, fluorescence, Alamar Blue, secondary assay (AID 2327); assay type: functional;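 note: NIH-3T3 mouse fibroblasts cultured with fluconazole at 8 µg/mL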
[11] = fluconazole-exposed Candida albicans growth modulators – fluorescence, retest, confirmation (AID 2467); assay type: functional, cell-based
[12] = Trypanosoma cruzi growth suppression in host cells – NIH3T3 host cells, beta-gal luminescence, confirmation (AID 2044); assay type: functional, cell-based;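 note: intracellular parasites grown in NIH/3T3 mouse fibroblasts as host cells; luminescent beta-galactosidase reporter signal from transgenic T. cruzi replicating inside host cells; inhibitors lower the luminescence signal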
[13] = NIH3T3 cell viability loss – ATP luminescence, mouse fibroblasts, counter-screen, dose response (AID 2010); assay type: functional, cell-based;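 note: cells exposed to compound for about 90 hours before reading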
[14] = target: T2, Heat shock factor protein 1 (Mus musculus, UniProt P38532); test: decrease of HSF1-responsive luciferase luminescence – cell-based, NIH3T3, dose retest, confirmation (AID 2382); assay type: functional;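 note: NIH3T3 fibroblasts with HSF1-driven luciferase reporter stressed by proteasome inhibitor MG132; luminescence from HSF1-driven luciferase expression after 8 hours of MG132 stress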
T2 sequence (P38532 whole entry): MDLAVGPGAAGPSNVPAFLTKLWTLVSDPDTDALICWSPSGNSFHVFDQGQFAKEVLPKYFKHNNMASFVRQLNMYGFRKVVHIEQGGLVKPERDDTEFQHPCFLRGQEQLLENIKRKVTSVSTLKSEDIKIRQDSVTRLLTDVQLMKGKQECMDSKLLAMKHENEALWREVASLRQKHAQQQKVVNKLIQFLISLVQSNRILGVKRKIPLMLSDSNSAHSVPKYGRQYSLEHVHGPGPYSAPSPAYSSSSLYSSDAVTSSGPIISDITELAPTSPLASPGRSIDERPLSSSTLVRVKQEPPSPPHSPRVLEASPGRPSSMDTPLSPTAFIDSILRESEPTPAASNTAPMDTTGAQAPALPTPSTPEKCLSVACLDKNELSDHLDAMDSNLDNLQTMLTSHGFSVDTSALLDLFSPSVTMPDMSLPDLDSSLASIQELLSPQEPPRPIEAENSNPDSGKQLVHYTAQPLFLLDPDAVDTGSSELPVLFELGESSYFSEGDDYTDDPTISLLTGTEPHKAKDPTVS

[15] = test system: H9c2; test: cells; assay type: functional, cell-based; settings: Rattus norvegicus, H9c2, Myocardium;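 note: confirmatory concentration-response retest of ultra-high-throughput screening hits for modulation of myocardial damage; cell death induced by hydrogen peroxide oxidative stress; compound pretreatment for 60 min then peroxide exposure for 2 h; potency is for protecting the cells against peroxide damage rather than for killing them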

Chain of FAD-linked sulfhydryl oxidase ALR (P55789 whole entry): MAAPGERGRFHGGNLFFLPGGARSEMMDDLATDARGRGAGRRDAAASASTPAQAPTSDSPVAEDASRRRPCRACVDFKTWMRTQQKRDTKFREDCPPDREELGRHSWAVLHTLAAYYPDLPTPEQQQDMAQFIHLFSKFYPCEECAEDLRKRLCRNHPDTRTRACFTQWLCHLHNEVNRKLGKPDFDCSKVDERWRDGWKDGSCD

## Cc1ccc(S(=O)(=O)N2CCN=C2SCc2cccnc2)cc1
[1]
  AC50: 0.046 µM (active)

## CC1CCCN(C(=O)COC(=O)c2cc([N+](=O)[O-])ccc2N2CCOCC2)C1 (stereo unspecified)
[2]
  IC50: 2.27 µM (active)
[3]
  IC50: 1.91 µM (active)

## COc1cccc(N2CCN(Cc3ccc(Cl)cc3)CC2)c1
[4]
  EC50: > 112 µM (not active)
[5]
  EC50: > 112 µM (not active)

## COc1ccc(CN2CCN(C(=O)Cn3nc(C(=O)O)c4ccccc4c3=O)CC2)cc1F
[4]
  EC50: > 112 µM (not active)
[5]
  EC50: 7.7 µM (active)

## Cc1ccc(S(=O)(=O)N2CCN(C(=O)COC(=O)c3cc([N+](=O)[O-])ccc3NCCO)CC2)c(C)c1
[2]
  IC50: 6.04 µM (active)
[3]
  IC50: 2.7 µM (active)

## CC(C)=NNc1nc(-c2ccccc2)cs1
[1]
  AC50: 0.601 µM (active)

## CC(C)(C)C1CCc2c(sc3nc(SCC(N)=O)nc(N)c23)C1 (stereo unspecified)
[6]
  EC50: 27.3 µM (active)
[7]
  EC50: 24.9 µM (active)
[8]
  CC50: > 40 µM (active)

## COc1ccc(CNC(=O)C[C@H]2C[C@H](C(=O)N3CCOCC3)[C@@]3(CCC4CCCC4)c4[nH]c5ccc(Cl)cc5c4CCN3C2=O)cc1OC
[2]
  IC50: 1.71 µM (active)
[3]
  IC50: 0.878 µM (active)

## CCOc1ccccc1N=C(S)N1CCN(c2ccc(O)cc2)CC1
[9]
  IC50: 6.28 µM (active)

## CCOC(=O)CCSc1nc2c(c(C(F)(F)F)c1C#N)CCC2
[2]
  IC50: 7.74 µM (active)
[3]
  IC50: 8.57 µM (active)

## Cc1cccc(-n2c(CCn3nc(C)c([N+](=O)[O-])c3C)n[nH]c2=S)c1
[1]
  AC50: 4.3 µM (active)

## CCC[n+]1c2ccccc2cc2ccccc21
[10]
  EC50: > 160 µM (inactive)
[11]
  EC50: 0.672 µM (active)
[9]
  IC50: 46.2 µM (active)
[12]
  EC50: 0.157 µM (active)
[13]
  EC50: > 60 µM (not active)

## Cc1cc(C)c([N+](=O)[O-])cc1NCC(=O)N1CCN(c2ccccc2)CC1
[2]
  IC50: 9.53 µM (active)
[3]
  IC50: 6.55 µM (active)

## CCN(CC(=O)Nc1c(F)cccc1F)C(=O)Cc1nnc(O)c2ccccc12
[14]
  EC50: > 195 µM (not active)
[15]
  IC50: > 79 µM (inactive)

## NC(=O)N1CCN(C(=O)c2ccco2)CC1
[4]
  EC50: > 112 µM (not active)
[5]
  EC50: > 112 µM (not active)

## CC1Cc2nc(SCC(=O)N3CCCc4ccccc43)n(C)c(=O)c2S1 (stereo unspecified)
[4]
  EC50: > 112 µM (not active)
[5]
  EC50: > 112 µM (not active)

## Cc1noc(NS(=O)(=O)c2ccc(NC(=O)c3cnc4n(c3=O)CCS4)cc2)c1C
[1]
  AC50: 0.255 µM (active)

## SC1=NC2(CCCCC2)NN1c1ccccc1
[1]
  AC50: 1.79 µM (active)

## O=C(Nc1ccn(Cc2ccc(F)cc2)n1)c1ccncc1
[4]
  EC50: > 112 µM (not active)
[5]
  EC50: > 112 µM (not active)
